Assays:
[1] = Viability of THP-1 cells, MTT assay; format: cell-based, Human; conditions: human, THP-1 cells (monocytes); for viability at 24 h: CBD and CBG alone, treatments reported with the IL6 data, read-out: viability levels
Method: (§1) Cell lines were cultured according to standard mammalian tissue culture protocols and sterile technique. Human monocytes THP-1 cells were cultured in RPMI medium 1640. HaCaT cells were cultured in DMEME medium. All media was supplemented with 10% fetal bovine serum, streptomycin ([…]), penicillin (100 U/ml) and Nystatin (12.5 U/ml). Cells were incubated in 5% CO2 at 37° C. All tissue culture cells were maintained in 75 cm^2 cell culture treated flask (Eppendorf) and all the media and supplements were obtained from Biological Industries. Treatment were performed by plating cells in a 96 micro well delta surface plates (Eppendorf) in a starting confluence of 1×10^4 cells/well.
(§2) The viability of the cells following treatment was determined using a commercially available MTT assay kit (Abcam, ab146345) and performed according to manufacturer's instructions. Briefly, cells were seeded in a 96-well plate at a density of 1×10^4 cells/well (n=4) in 100 μl cell specific media. After overnight incubation, cells were exposed to varying concentrations of isolated components (CBD, CBG and PSO, each alone) and combination samples as described in Example 1, in 100 μl of specific media, by adding a stock solution to the medium in amount that provides the indicated concentration (see, Tables 1, 2A and 2B). Then, plates were incubated in a humidified atmosphere containing 5% CO2 in air at 37° C. for 24 hours. According to the MTT standard protocol, after 24 hours treatment, the media was removed, and all cells were incubated with serum-free media containing 0.5 mg/ml MTT for 4 hours at the incubator. The MTT purple crystals formed by the viable cells were dissolved using isopropanol containing 0.04 mol/L HCl. The quantification was determined by measuring the optical density at 570 nm in a spectrophotometer reader (Spark, Tecan). Results are presented as proportional viability (%) by comparing between treated and untreated groups.
(§3) Cytotoxic potential of an extract was determined according to the following criteria:
(§4) Cytotoxic: Viability is reduced to less than 70% of vehicle control.
(§5) Non-cytotoxic: Viability is >70% of vehicle control

THP-1 cells = assay: Viability of THP-1 cells, MTT assay; format: cell-based, Human; conditions: 24 hours
Method: as §1, §2, §3, §4, §5

HaCaT cells [2] = assay: Cellular ROS production from HaCaT cells in the presence of H2O2 (DCFDA assay); format: cell-based; conditions: each component alone, 5 hours, FIG. 9A
Method: Cellular ROS production was measured using a DCFDA assay kit (Abcam, ab113851)) according to the manufacturer's protocol. DCFDA (2′,7′-dichlorofluorescein diacetate), a cell-permeable fluorogenic dye, is deacetylated to a non-fluorescent compound by cellular esterases and later oxidized into highly fluorescent DCF (2′,7′-dichlorofluorescein) by ROS, allowing measurement of hydroxyl, peroxyl and other ROS activity within the cell.
HaCaT cells were seeded at a density of 2.5×10^4 for 24 hours on 96-well plates. After 24 hours, the cells were washed twice with 1× buffer assay and then incubated with 25 μM DCFDA in 1× buffer assay in a 37° C. incubator for 45 minutes. After two washes with 1× buffer assay, the cells were exposed to the tested samples and to 0.25 M H202, each added separately to the medium.
Cell fluorescence in the 96-well plates was measured at 488 nm excitation and 525 nm emission using a Tecan spark plate reader (Tecan US, Inc. Morrisville, NC), 5 hours after the addition of the tested samples or sample combinations.
The control used as reference are cells treated only with H2O2. The results are shown as percentage of the control.

HaCaT cells [3] = assay: Viability of HaCaT cells, MTT assay; format: cell-based; conditions: alone, FIG. 8A
Method: as §1, §2, §3
Cytotoxic: Viability is reduced to less than 70% of vehicle control. […]

[4] = test system: IL6 secretion from LPS-stimulated THP-1 cells; assay: IL6 secretion from LPS-stimulated THP-1 cells (HTRF); format: cell-based, Human; conditions: alone
Method: (§6) Human THP-1 monocytes were seeded in a 96-well plate (Eppendorf) at a density of 3×10^5 cells/well (n=4) in 100 μl cell specific media and was differentiated using phorbol-12-myristate 13-acetate (PMA) (Sigma-Aldrich) at a final concentration of 200 nM. PMA supplemented media was removed after 72 hours. Cells were then washed twice with PBS and rested in fresh PMA-free media for further 24 hours in order to obtain phenotypic characteristics of macrophages (Daigneault et al., 2010, PLoS One, 5, e8668).
(§7) After 24 hours, cells were stimulated by Lipopolysaccharides (LPS) at a final concentration of 1μg/ml and were treated with the samples using specific media containing 5% FBS (100 μL of media solution containing the tested materials at the indicated concentration; see, Example 1).
(§8) After 24 hours, the cells supernatants were harvested and diluted up to 5 times in working media to avoid the hook effect. HTRF assays were performed in white 96-well plate (CisBio Bioassays) with a total working volume of 20 μL. All HTRF reagents were purchased from CisBio Bioassays and reconstituted according to the supplier protocols. For each assay 16 μL of diluted supernatants samples were incubated with 4 μL mixed solution containing donor and acceptor antibodies. Antibodies for the detection of TNFα and IL6 were used.
(§9) After 2 hours incubation, HTRF signals were measured using SPARK® multimode microplate reader with an excitation filter at 320 nm and fluorescence wavelength measurement at 620 and 665 nm, an integration delay of 60 μs and an integration time of 400 μs. Results were analyzed with a two-wavelength signal ratio: [intensity (665 nm)/intensity (620 nm)]*104. Calculation and analysis of cytokines release was performed according to the supplier protocols and using the 4PL 1/Y2 formula in GraphPad Prism software.

[5] = test system: TNFα secretion from LPS-stimulated THP-1 cells; assay: TNFα secretion from LPS-stimulated THP-1 cells (HTRF); format: cell-based, Human; conditions: for ratio of TNFα secretion to cells viability: alone; for TNFα secretion (percentage of the control): each alone, highest concentration, FIG. 2A
Method: as §6, §7, §8, §9

[6] = alone, reported with the TNFα data
[7] = each component alone, all tested concentrations, FIG. 1A-B

Compound | viability at 24 h [1] | viability at 24 h, 10 µM ([1]; alone, 10 μM, reported with the TNFα data) | viability at 24 h, 20 µM [1, 6] | THP-1 cells viability (THP-1 cells; 20 μM, FIG. 1A) | THP-1 cells viability (THP-1 cells; [7]) | ROS production from HaCaT cells, effect relative to the solvent (ethanol) (HaCaT cells [2]) | toxicity to keratinocyte cells (HaCaT cells [3]; high concentration, e.g. 40 μM) | viability of HaCaT cells (toxicity) (HaCaT cells [3]; higher concentration) | ratio of IL6 secretion to cells viability ([4]; lowest tested concentration of 10 μM) | ratio of TNFα secretion to cells viability ([5]; 10 μM) | ratio of TNFα secretion to cells viability ([5]; 20 μM) | ratio of TNFα secretion to cells viability ([5]; lowest concentration, FIG. 2B) | TNFα secretion (percentage of the control) [5] | toxicity to keratinocyte cells (HaCaT cells [3]; only at a high concentration) | ratio of IL6 secretion to cells viability ([4]; 40 μM) | ratio between IL-6 secretion and viability ([4]; highest concentration, FIG. 5B) | ratio of TNFα secretion to cells viability ([5]; medium concentration, FIG. 2B)
C=C(C)[C@@H]1CCC(C)=C[C@H]1c1c(O)cc(CCCCC)cc1O [CBD, cannabidiol] | > 140% | 140% | 140% | most pronounced effect | enhanced viability | very mild effect | toxic | toxic | 0.23 | about 0.6 | about 0.6 | lowest ratio | elevation of TNFα secretion |  |  |  | 
CCCCCc1cc(O)c(C/C=C(\C)CCC=C(C)C)c(O)c1 [CBG, cannabigerol] | > 140% |  | 140% |  | enhanced viability | very mild effect |  |  |  |  | about 0.6 |  | elevation of TNFα secretion | mild toxicity | 0.29 | high reduction of the ratio | lowest ratio

From patent US20220287935A1, “CANNABINOID-CONTAINING SKIN CARE COMPOSITIONS” (Cannasmetics Ltd., priority 2021, published 2022)
